According to PMC6104039 (Nature Communications, 2018):
Several values for one entry are separate records, joined by “and”; a condition that tells them apart may be missing. Identical values can stand only once.

Key:
HEK293 cells = test: Non-viable cells by propidium iodide staining and flow cytometry, 72 h; type: cell-based; details: at or below 1 μM
Description: Lipid levels are expressed as a percentage of vehicle control levels. […] All graphs show combined data from two independent experiments, each with 3 (a) or 4 (b-d) separate cell treatments, mean ± SEM. Statistical significance in (b-d) was determined by t-tests adjusted for multiple comparisons, comparing all lipids (22 lipids tested in total) at each concentration to the control group; ^+P < 0.05; ^#P < 0.01; *P < 0.001

adipose tissue = test: Ceramide and SM species in epididymal adipose tissue; type: in vivo, mice; details: Chow + P053, individual values
Description: Male C57BL6/J mice were obtained from the Animal Resources Centre in Perth (WA, Australia). Mice were housed at 22 ± 1 °C with a controlled 12:12 h light-dark cycle and had ad libitum access to water and either chow (8% calories from fat) or HFD (45% calories from fat)[66] for 4–6 weeks. […] Treatment was commenced at the same time as mice were randomised to dietary groups. The experiments were approved by the UNSW animal care and ethics committee (ACEC 15/48B), and followed guidelines issued by the National Health and Medical Research Council of Australia.
Lipids were extracted from frozen tissue samples or cells using a two-phase procedure with methyl-tert-butyl ether (MTBE)/methanol/water (10:3:2.5, v/v/v)[67]. Frozen tissue samples (~20 mg) were homogenized in 0.2 mL methanol containing 0.01% butylated hydroxytoluene (BHT), using a Precellys 24 homogenizer and Cryolys cooling unit (Bertin Technologies) with CK14 (1.4-mm ceramic) beads. The homogenates were spiked with an internal standard mixture comprising 5 nmole 19:0/19:0 phosphatidylcholine and 2 nmole each of 17:0/17:0 phosphatidylethanolamine, 17:0/17:0 phosphatidylserine, 17:0/17:0 d5-diacylglycerol, 17:0/17:0 phosphatidylglycerol, 14:0/14:0/14:0/14:0 cardiolipin, 18:1/12:0 SM, 18:1/17:0 ceramide, 18:1/12:0 glucosylceramide, 18:1/12:0 lactosylceramide, 18:1/12:0 sulfatide (all from Avanti Polar Lipids, USA), and 17:0/17:0/17:0 TAG (Cayman Chemical, USA), then transferred to 10 mL screw cap glass tubes. The homogenization tubes containing beads were then washed with another 0.3 mL methanol, and this wash was combined with the first methanol extract, after which 1.7 mL MTBE was added and the samples were sonicated in an ice-cold sonicating water bath (Thermoline Scientific, Australia) for 30 min. Phase separation was induced by addition of 417 µL of mass spectrometry-grade water followed by vortexing and centrifugation at 1000 × g for 10 min. The upper organic phase was collected into 5 mL glass tubes. The lower phase was re-extracted by adding 1 mL MTBE, 300 μL methanol, and 250 μL water. The organic phases were combined in the 5 mL glass tubes and dried under vacuum in a Savant SC210 SpeedVac (Thermo Scientific), then reconstituted in 500 μL methanol and stored at −20 °C until analysis.
Lipidomic profiling was performed on a QExactive Plus mass spectrometer with heated electrospray ionization (HESI) probe and a Dionex UltiMate 2000 LC pump (Thermo Fisher Scientific). Extracts were resolved on a 2.1 × 100 mm Waters Acquity C18 UPLC column (1.7 µm […]), using a binary gradient in which mobile phase A consisted of acetonitrile:water (60:40), 10 mM ammonium formate, 0.1% formic acid; and mobile phase B was isopropanol:acetonitrile (90:10), 10 mM ammonium formate, 0.1% formic acid[68]. The flow rate was 260 µL/min and column oven 55 °C. Data was acquired in full scan/data-dependent MS^2 mode (full scan resolution 70,000 FWHM, scan range 400–1200 m/z). The ten most abundant ions in each cycle were subjected to MS^2 using an isolation window of 1.4 m/z, collision energy 30 eV, resolution 17,500, maximum integration time 110 ms and dynamic exclusion window 10 s. An exclusion list of background ions was used based on a solvent blank. LipidSearch v4.1.30 software (ThermoFisher Scientific) was used for chromatogram alignment, peak identification and integration. Each lipid peak was manually verified for column elution time and characteristic fragment ions. Data were then exported to an Excel spreadsheet for normalisation of each lipid to its class-specific internal standard, and lipid concentrations were calculated relative to the internal standard.

`C[C@@](N)(CO)CCc1ccc(OCc2ccc(Cl)c(Cl)c2)cc1` [P053, (S)-2-amino-4-(4-(3,4-dichlorobenzyloxy)phenyl)-2-methylbutan-1-ol] was tested, and the HEK293 cell viability (HEK293 cells) was “no effect”, the “Ceramide 18:1/16:0 content of white adipose tissue” value (adipose tissue; raw data Fig 3l) was 10.929 and 4.227 and 17.193 and 8.156 and 14.726 and 6.210 and 17.172 and 6.636 and 12.272 and 15.061 and the “Ceramide 18:1/18:0 content of white adipose tissue” value (adipose tissue; raw data Fig 3l) was 2.114 and 0.846 and 3.339 and 1.520 and 2.375 and 1.130 and 3.918 and 1.468 and 2.718 and 2.056. The “Ceramide 18:1/20:0 content of white adipose tissue” value (adipose tissue; raw data Fig 3l) was 1.814 and 0.867 and 3.626 and 1.453 and 2.395 and 1.178 and 2.617 and 1.217 and 2.593 and 1.998, the “Ceramide 18:1/22:0 content of white adipose tissue” value (adipose tissue; raw data Fig 3l) was 4.127 and 2.201 and 7.564 and 3.535 and 5.536 and 3.049 and 7.800 and 3.557 and 5.828 and 4.572 and the “Ceramide 18:1/24:0 content of white adipose tissue” value (adipose tissue; raw data Fig 3l) was 6.125 and 3.020 and 12.234 and 6.320 and 9.940 and 4.064 and 14.430 and 5.790 and 10.017 and 7.844. For the same compound, the “Ceramide 18:1/24:1 content of white adipose tissue” value (adipose tissue; raw data Fig 3l) was 10.504 and 6.110 and 22.417 and 11.780 and 19.731 and 7.603 and 26.592 and 10.551 and 18.107 and 16.532, the “Ceramide 18:2/18:0 content of white adipose tissue” value (adipose tissue; raw data Fig 3l) was 1.183 and 0.312 and 1.256 and 0.618 and 1.358 and 0.382 and 1.268 and 0.527 and 0.931 and 1.219 and the “Ceramide 18:2/22:0 content of white adipose tissue” value (adipose tissue; raw data Fig 3l) was 2.177 and 0.918 and 3.608 and 1.721 and 2.577 and 1.375 and 2.989 and 1.482 and 2.309 and 2.564. For the same compound, the “Ceramide 18:2/24:0 content of white adipose tissue” value (adipose tissue; raw data Fig 3l) was 4.508 and 1.750 and 7.166 and 3.688 and 5.287 and 2.715 and 7.269 and 3.296 and 4.451 and 6.052, the “Ceramide 18:2/24:1 content of white adipose tissue” value (adipose tissue; raw data Fig 3l) was 4.820 and 2.648 and 9.228 and 4.871 and 7.660 and 3.147 and 9.518 and 3.932 and 5.805 and 6.812 and the “SM 34:1 content of white adipose tissue” value (adipose tissue; raw data Fig 3m) was 276.61 and 66.44 and 226.46 and 212.93 and 276.78 and 111.51 and 327.37 and 118.77 and 188.15 and 267.47. The “SM 34:2 content of white adipose tissue” value (adipose tissue; raw data Fig 3m) was 23.85 and 2.33 and 6.66 and 4.19 and 4.83 and 3.15 and 5.28 and 2.34 and 3.58 and 6.77, the “SM 36:1 content of white adipose tissue” value (adipose tissue; raw data Fig 3m) was 33.66 and 9.97 and 25.23 and 24.39 and 28.26 and 12.44 and 31.61 and 15.13 and 21.89 and 30.09 and the “SM 36:2 content of white adipose tissue” value (adipose tissue; raw data Fig 3m) was 12.60 and 1.84 and 8.68 and 8.41 and 12.18 and 3.45 and 12.76 and 4.74 and 5.44 and 12.73. The “SM 38:1 content of white adipose tissue” value (adipose tissue; raw data Fig 3m) was 22.37 and 7.77 and 26.08 and 17.58 and 21.03 and 10.59 and 19.70 and 11.77 and 20.28 and 19.73, the “SM 38:2 content of white adipose tissue” value (adipose tissue; raw data Fig 3m) was 5.83 and 1.41 and 5.52 and 4.51 and 5.60 and 2.81 and 4.44 and 2.01 and 3.84 and 6.42 and the “SM 40:1 content of white adipose tissue” value (adipose tissue; raw data Fig 3m) was 44.87 and 18.02 and 56.10 and 41.83 and 53.17 and 20.49 and 52.33 and 23.88 and 40.81 and 43.57. For the same compound, the “SM 40:2 content of white adipose tissue” value (adipose tissue; raw data Fig 3m) was 12.98 and 4.14 and 11.80 and 8.16 and 10.55 and 6.16 and 10.26 and 5.10 and 7.07 and 11.44, the “SM 42:1 content of white adipose tissue” value (adipose tissue; raw data Fig 3m) was 28.12 and 11.04 and 39.22 and 23.51 and 29.01 and 11.65 and 31.95 and 14.81 and 26.21 and 27.56 and the “SM 42:2 content of white adipose tissue” value (adipose tissue; raw data Fig 3m) was 81.27 and 33.26 and 95.54 and 83.35 and 95.85 and 36.01 and 109.30 and 44.61 and 71.06 and 85.15. The “SM 42:3 content of white adipose tissue” value (adipose tissue; raw data Fig 3m) was 22.64 and 7.14 and 18.55 and 16.77 and 22.11 and 8.66 and 22.41 and 8.50 and 11.09 and 21.29.
